Patent publication US7291649B2, “Forming germicidal aromatic dialdehydes with acetals” (Ethicon, Inc., priority 2005, dated 2007)
Values belong to the molecule of their own block, whether it stands above or below them.

Experiments:
[1] = Hydrolysis of OPA acetals to OPA in distilled water at various pH, monitored by GC/MS; assay type: physicochemical; details: room temperature
Experimental: The reactions of 1,3-dimethoxyphthalan, 1,3-diethoxyphthalan, a PEG 200 pegylated OPA acetal at various pH in distilled water were evaluated at room temperature. The acetals were suspended in distilled water, followed by pH measurement, and pH adjustment with either hydrogen chloride (HCl), phthalic acid, or sodium hydroxide (NaOH), depending on the particular pH. The mixture was stirred at room temperature and monitored by gas chromatograph/mass spectroscopy (GC/MS) at various time intervals.
The hydrolysis rate depends upon pH. Over the range of pH investigated, the lower the pH, the faster the hydrolysis rate.

[2] = Hydrolysis of 1,3-diethoxyphthalan in the presence of OPA in distilled water at various pH, monitored by GC/MS; assay type: physicochemical
Experimental: The hydrolysis of 1,3-diethoxyphthalan in the presence of OPA in distilled water at various pH was evaluated at room temperature. 1,3-Diethoxyphthalan was added to the OPA solution in distilled water, followed by pH measurement and adjustment with either HCl or NaOH, depending on the pH. The mixtures were stirred at room temperature and monitored by GC/MS at various time intervals.

[3] = cited from earlier work
[4] = Hydrolysis of the tetramethyl acetal of IPA to IPA in water, gas chromatography; assay type: physicochemical; details: pH 4.34 (HCl)
Experimental: The process takes place in two staged reactions. In one experiment, the tetramethyl acetal of IPA (0.114 g, 0.504 mmol) was suspended in 100 mL of water including 67 mg of OPA as the internal standard. A relatively large volume of water was used due to the low solubility of IPA. The pH of the water was adjusted to 4.34 with 1% HCl. At various time intervals 0.5 mL of the reaction mixture was sampled and extracted with 1 mL of ethyl acetate (EtOAc). The samples were analyzed with gas chromatography.
The diacetal starting material disappeared within 8 h, but hydrolysis of the second acetal group of the monoacetal took longer period of time.

[5] = Solubility in 30% polyethylene glycol plus water solution; assay type: physicochemical
[6] = pH = 6.95, NaOH adjusted, 120 h
[7] = pH = 6.95, NaOH adjusted, 168 h
[8] = pH = 6.95, NaOH adjusted, 240 h
[9] = pH = 6.95, NaOH adjusted, 312 h
[10] = pH = 6.95, NaOH adjusted, 480 h
[11] = pH = 6.95, NaOH adjusted, 552 h
[12] = pH = 8.9, NaOH adjusted, 1200 h

Structure (SMILES): COC1OC(OC)c2ccccc21 (centres unmarked) [1,3-dimethoxyphthalan]
OPA (w/w %) ([1]; pH = 5.0 (phthalic acid), water, 0 h): 0.000 w/w %
OPA (w/w %) ([1]; pH = 5.0 (phthalic acid), water, 24 h): 0.028 w/w %
OPA (w/w %) ([1]; pH = 5.0 (phthalic acid), water, 120 h): 0.166 w/w %
OPA (w/w %) ([1]; pH = 5.0 (phthalic acid), water, 240 h): 0.301 w/w %
OPA (w/w %) ([1]; pH = 5.0 (phthalic acid), water, 360 h): 0.367 w/w %
OPA (w/w %) ([1]; pH = 5.0 (phthalic acid), water, 480 h): 0.405 w/w %
OPA (w/w %) ([1]; pH = 5.0 (phthalic acid), water, 576 h): 0.417 w/w %

Structure (SMILES): CCOC1OC(OCC)c2ccccc21 (centres unmarked) [1,3-diethoxyphthalan]
OPA (w/w %) ([1]; pH = 5.4, HCl adjusted, water, 0 h): 0.000 w/w %
OPA (w/w %) ([1]; pH = 5.4, HCl adjusted, water, 2 h): 0.024 w/w %
OPA (w/w %) ([1]; pH = 5.4, HCl adjusted, water, 48 h): 0.056 w/w %
OPA (w/w %) ([1]; pH = 5.4, HCl adjusted, water, 120 h): 0.158 w/w %
OPA (w/w %) ([1]; pH = 5.4, HCl adjusted, water, 240 h): 0.296 w/w %
OPA (w/w %) ([1]; pH = 5.4, HCl adjusted, water, 360 h): 0.525 w/w %
OPA (w/w %) ([1]; pH = 5.4, HCl adjusted, water, 480 h): 0.596 w/w %
OPA (w/w %) ([1]; pH = 6.9, water, 0 h): 0.000 w/w %
OPA (w/w %) ([1]; pH = 6.9, water, 1 h): 0.000 w/w %
OPA (w/w %) ([1]; pH = 6.9, water, 20 h): 0.010 w/w %
OPA (w/w %) ([1]; pH = 6.9, water, 144 h): 0.097 w/w %
OPA (w/w %) ([1]; pH = 6.9, water, 240 h): 0.204 w/w %
OPA (w/w %) ([1]; pH = 6.9, water, 359 h): 0.419 w/w %
OPA (w/w %) ([1]; pH = 6.9, water, 480 h): 0.476 w/w %
OPA (w/w %) ([1]; pH = 10.8, NaOH adjusted, water, 48 h): 0.0048 w/w %
OPA (w/w %) ([1]; pH = 10.8, NaOH adjusted, water, 120 h): 0.0062 w/w %
OPA (w/w %) ([1]; pH = 10.8, NaOH adjusted, water, 480 h): 0.0473 w/w %
OPA (w/w %) ([1]; pH = 10.8, NaOH adjusted, water, 720 h): 0.112 w/w %
OPA (w/w %) ([1]; pH = 10.8, NaOH adjusted, water, 960 h): 0.229 w/w %
Acetal % ([2]; pH = 6.95, NaOH adjusted, 0 h): 21.8%
OPA % ([2]; pH = 6.95, NaOH adjusted, 0 h): 78.2%
OPA (w %) ([2]; pH = 6.95, NaOH adjusted, 0 h): 0.498 w %
Acetal % ([2]; pH = 6.95, NaOH adjusted, 48 h): 18.1%
OPA % ([2]; pH = 6.95, NaOH adjusted, 48 h): 81.9%
OPA (w %) ([2]; pH = 6.95, NaOH adjusted, 48 h): 0.509 w %
Acetal % [2, 6]: 12.1%
OPA % [2, 6]: 87.9%
OPA (w %) [2, 6]: 0.527 w %
Acetal % [2, 7]: 9.4%
OPA % [2, 7]: 90.6%
OPA (w %) [2, 7]: 0.535 w %
Acetal % [2, 8]: 6.4%
OPA % [2, 8]: 93.6%
OPA (w %) [2, 8]: 0.543 w %
Acetal % [2, 9]: 4.2%
OPA % [2, 9]: 95.8%
OPA (w %) [2, 9]: 0.550 w %
Acetal % [2, 10]: 1.2%
OPA % [2, 10]: 98.8%
OPA (w %) [2, 10]: 0.559 w %
Acetal % [2, 11]: 0.7%
OPA % [2, 11]: 99.3%
OPA (w %) [2, 11]: 0.560 w %
Acetal % ([2]; pH = 8.0, NaOH adjusted, 0 h): 20.9%
OPA % ([2]; pH = 8.0, NaOH adjusted, 0 h): 79.1%
OPA (w %) ([2]; pH = 8.0, NaOH adjusted, 0 h): 0.498 w %
Acetal % ([2]; pH = 8.0, NaOH adjusted, 48 h): 21.6%
OPA % ([2]; pH = 8.0, NaOH adjusted, 48 h): 78.4%
OPA (w %) ([2]; pH = 8.0, NaOH adjusted, 48 h): 0.496 w %
Acetal % ([2]; pH = 8.0, NaOH adjusted, 144 h): 18.6%
OPA % ([2]; pH = 8.0, NaOH adjusted, 144 h): 81.4%
OPA (w %) ([2]; pH = 8.0, NaOH adjusted, 144 h): 0.505 w %
Acetal % ([2]; pH = 8.0, NaOH adjusted, 240 h): 17%
OPA % ([2]; pH = 8.0, NaOH adjusted, 240 h): 83.0%
OPA (w %) ([2]; pH = 8.0, NaOH adjusted, 240 h): 0.510 w %
Acetal % ([2]; pH = 8.0, NaOH adjusted, 312 h): 15.2%
OPA % ([2]; pH = 8.0, NaOH adjusted, 312 h): 84.8%
OPA (w %) ([2]; pH = 8.0, NaOH adjusted, 312 h): 0.515 w %
Acetal % ([2]; pH = 8.0, NaOH adjusted, 480 h): 10.4%
OPA % ([2]; pH = 8.0, NaOH adjusted, 480 h): 89.6%
OPA (w %) ([2]; pH = 8.0, NaOH adjusted, 480 h): 0.530 w %
Acetal % ([2]; pH = 8.0, NaOH adjusted, 576 h): 8.1%
OPA % ([2]; pH = 8.0, NaOH adjusted, 576 h): 91.9%
OPA (w %) ([2]; pH = 8.0, NaOH adjusted, 576 h): 0.537 w %
Acetal % ([2]; pH = 8.0, NaOH adjusted, 720 h): 3.4%
OPA % ([2]; pH = 8.0, NaOH adjusted, 720 h): 96.6%
OPA (w %) ([2]; pH = 8.0, NaOH adjusted, 720 h): 0.551 w %
Acetal % ([2]; pH = 8.0, NaOH adjusted, 840 h): 2%
OPA % ([2]; pH = 8.0, NaOH adjusted, 840 h): 98.0%
OPA (w %) ([2]; pH = 8.0, NaOH adjusted, 840 h): 0.555 w %
Acetal % ([2]; pH = 8.0, NaOH adjusted, 960 h): 1%
OPA % ([2]; pH = 8.0, NaOH adjusted, 960 h): 99.0%
OPA (w %) ([2]; pH = 8.0, NaOH adjusted, 960 h): 0.558 w %
Acetal % ([2]; pH = 8.9, NaOH adjusted, 0 h): 21.8%
OPA % ([2]; pH = 8.9, NaOH adjusted, 0 h): 78.2%
OPA (w %) ([2]; pH = 8.9, NaOH adjusted, 0 h): 0.498 w %
Acetal % ([2]; pH = 8.9, NaOH adjusted, 96 h): 21.4%
OPA % ([2]; pH = 8.9, NaOH adjusted, 96 h): 78.6%
OPA (w %) ([2]; pH = 8.9, NaOH adjusted, 96 h): 0.498 w %
Acetal % ([2]; pH = 8.9, NaOH adjusted, 240 h): 18.8%
OPA % ([2]; pH = 8.9, NaOH adjusted, 240 h): 81.2%
OPA (w %) ([2]; pH = 8.9, NaOH adjusted, 240 h): 0.507 w %
Acetal % ([2]; pH = 8.9, NaOH adjusted, 336 h): 17.2%
OPA % ([2]; pH = 8.9, NaOH adjusted, 336 h): 82.8%
OPA (w %) ([2]; pH = 8.9, NaOH adjusted, 336 h): 0.511 w %
Acetal % ([2]; pH = 8.9, NaOH adjusted, 480 h): 13.8%
OPA % ([2]; pH = 8.9, NaOH adjusted, 480 h): 86.2%
OPA (w %) ([2]; pH = 8.9, NaOH adjusted, 480 h): 0.521 w %
Acetal % ([2]; pH = 8.9, NaOH adjusted, 600 h): 11.0%
OPA % ([2]; pH = 8.9, NaOH adjusted, 600 h): 89.0%
OPA (w %) ([2]; pH = 8.9, NaOH adjusted, 600 h): 0.530 w %
Acetal % ([2]; pH = 8.9, NaOH adjusted, 720 h): 6.7%
OPA % ([2]; pH = 8.9, NaOH adjusted, 720 h): 93.3%
OPA (w %) ([2]; pH = 8.9, NaOH adjusted, 720 h): 0.542 w %
Acetal % ([2]; pH = 8.9, NaOH adjusted, 840 h): 4.6%
OPA % ([2]; pH = 8.9, NaOH adjusted, 840 h): 95.4%
OPA (w %) ([2]; pH = 8.9, NaOH adjusted, 840 h): 0.548 w %
Acetal % ([2]; pH = 8.9, NaOH adjusted, 960 h): 3.0%
OPA % ([2]; pH = 8.9, NaOH adjusted, 960 h): 97.0%
OPA (w %) ([2]; pH = 8.9, NaOH adjusted, 960 h): 0.553 w %
Acetal % [2, 12]: 1.2%
OPA % [2, 12]: 98.8%
OPA (w %) [2, 12]: 0.558 w %
Dependence of hydrolysis rate on pH ([2]; range of pH investigated): the hydrolysis rate increases with decreasing pH

Structure (SMILES): O=Cc1ccccc1C=O [phthalaldehyde, 1,2-benzenedicarboxaldehyde]
Solubility in water [3]: about 5 % by weight

Continued, values first:

Mole % in reaction mixture during hydrolysis ([4]; 8 h): 79.7 Mole %
wt % in reaction mixture during hydrolysis ([4]; 8 h): 0.091 wt %
Mole % in reaction mixture during hydrolysis ([4]; 32 h): 33.9 Mole %
wt % in reaction mixture during hydrolysis ([4]; 32 h): 0.039 wt %
Mole % in reaction mixture during hydrolysis ([4]; 54 h): 0 Mole %
wt % in reaction mixture during hydrolysis ([4]; 54 h): 0 wt %
Structure (SMILES): COC(OC)c1cccc(C=O)c1 [Monoacetal]

Mole % in reaction mixture during hydrolysis ([4]; 8 h): 20.3 Mole %
wt % in reaction mixture during hydrolysis ([4]; 8 h): 0.014 wt %
Mole % in reaction mixture during hydrolysis ([4]; 32 h): 66.1 Mole %
wt % in reaction mixture during hydrolysis ([4]; 32 h): 0.045 wt %
Mole % in reaction mixture during hydrolysis ([4]; 54 h): 100 Mole %
wt % in reaction mixture during hydrolysis ([4]; 54 h): 0.068 wt %
Solubility [5]: less than 0.4%
Structure (SMILES): O=Cc1cccc(C=O)c1 [IPA, 1,3-benzenedicarboxaldehyde, reference compound]
